Reference: PMC3694096, “Development of Novel In Vivo Chemical Probes to Address CNS Protein Kinase Involvement in Synaptic Dysfunction” (PLoS ONE, 2013)
Where two headings read alike, the source gives them in different places.

Columns and labels:
[1] = target: T1, CK2α2 (Homo sapiens, UniProt P19784); experiment: Kinome profiler screen; assay type: biochemical
T1 construct: purchased Millipore KinaseProfiler

[2] = target: T2, NEK3 (Homo sapiens, UniProt P51956); experiment: Kinome profiler screen; assay type: biochemical; details: at 20,000 nM inhibitor; kinase activity remaining
T2 construct: purchased Millipore KinaseProfiler

[3] = target: T3, ARK5 (Homo sapiens, UniProt O60285); experiment: Kinome profiler screen; assay type: biochemical; details: at 20,000 nM inhibitor; kinase activity remaining
T3 construct: purchased Millipore KinaseProfiler

[4] = target: T4, IGF-1R, activated (Homo sapiens, UniProt P08069); experiment: Kinome profiler screen; assay type: biochemical; details: at 20,000 nM inhibitor; kinase activity remaining
T4 construct: purchased Millipore KinaseProfiler
T4 sequence (P08069 31-1367): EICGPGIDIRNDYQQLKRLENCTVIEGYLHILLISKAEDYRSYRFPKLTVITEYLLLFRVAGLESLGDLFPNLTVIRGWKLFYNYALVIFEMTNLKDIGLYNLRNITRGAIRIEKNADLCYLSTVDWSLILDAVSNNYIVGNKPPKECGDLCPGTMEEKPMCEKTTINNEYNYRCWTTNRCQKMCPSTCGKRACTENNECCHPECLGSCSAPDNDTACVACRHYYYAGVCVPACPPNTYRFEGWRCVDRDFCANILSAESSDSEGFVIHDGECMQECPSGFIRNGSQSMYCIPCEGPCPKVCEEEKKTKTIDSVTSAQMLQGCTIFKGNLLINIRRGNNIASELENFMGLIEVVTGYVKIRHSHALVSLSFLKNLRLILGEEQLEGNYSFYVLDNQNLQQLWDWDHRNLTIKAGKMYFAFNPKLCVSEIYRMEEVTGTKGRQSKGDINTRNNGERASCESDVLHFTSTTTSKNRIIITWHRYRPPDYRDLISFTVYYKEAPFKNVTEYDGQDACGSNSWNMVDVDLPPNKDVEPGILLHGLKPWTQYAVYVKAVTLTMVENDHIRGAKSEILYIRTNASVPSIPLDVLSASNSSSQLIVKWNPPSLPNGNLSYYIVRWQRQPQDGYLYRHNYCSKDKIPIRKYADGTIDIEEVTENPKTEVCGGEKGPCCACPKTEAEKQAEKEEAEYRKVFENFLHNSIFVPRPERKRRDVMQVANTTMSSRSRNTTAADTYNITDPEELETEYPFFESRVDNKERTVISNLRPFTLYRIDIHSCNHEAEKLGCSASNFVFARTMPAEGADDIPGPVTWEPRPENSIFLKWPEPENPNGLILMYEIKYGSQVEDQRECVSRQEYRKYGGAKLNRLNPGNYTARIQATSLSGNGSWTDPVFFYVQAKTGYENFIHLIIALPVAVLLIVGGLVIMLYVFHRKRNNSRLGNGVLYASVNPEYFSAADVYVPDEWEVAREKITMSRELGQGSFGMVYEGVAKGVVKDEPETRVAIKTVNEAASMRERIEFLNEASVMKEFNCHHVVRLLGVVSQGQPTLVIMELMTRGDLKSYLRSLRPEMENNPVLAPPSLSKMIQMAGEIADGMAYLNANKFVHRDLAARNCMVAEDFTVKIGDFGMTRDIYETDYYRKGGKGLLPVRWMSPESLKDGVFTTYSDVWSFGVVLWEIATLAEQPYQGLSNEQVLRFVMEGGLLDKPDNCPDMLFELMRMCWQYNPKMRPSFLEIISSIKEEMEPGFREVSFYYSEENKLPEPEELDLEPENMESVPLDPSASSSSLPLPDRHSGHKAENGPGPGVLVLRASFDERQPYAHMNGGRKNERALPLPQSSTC

[5] = target: T5, cKit (Homo sapiens, UniProt P10721); experiment: Kinome profiler screen; assay type: biochemical; details: at 20,000 nM inhibitor; kinase activity remaining
T5 construct: purchased Millipore KinaseProfiler
T5 sequence (P10721 26-976): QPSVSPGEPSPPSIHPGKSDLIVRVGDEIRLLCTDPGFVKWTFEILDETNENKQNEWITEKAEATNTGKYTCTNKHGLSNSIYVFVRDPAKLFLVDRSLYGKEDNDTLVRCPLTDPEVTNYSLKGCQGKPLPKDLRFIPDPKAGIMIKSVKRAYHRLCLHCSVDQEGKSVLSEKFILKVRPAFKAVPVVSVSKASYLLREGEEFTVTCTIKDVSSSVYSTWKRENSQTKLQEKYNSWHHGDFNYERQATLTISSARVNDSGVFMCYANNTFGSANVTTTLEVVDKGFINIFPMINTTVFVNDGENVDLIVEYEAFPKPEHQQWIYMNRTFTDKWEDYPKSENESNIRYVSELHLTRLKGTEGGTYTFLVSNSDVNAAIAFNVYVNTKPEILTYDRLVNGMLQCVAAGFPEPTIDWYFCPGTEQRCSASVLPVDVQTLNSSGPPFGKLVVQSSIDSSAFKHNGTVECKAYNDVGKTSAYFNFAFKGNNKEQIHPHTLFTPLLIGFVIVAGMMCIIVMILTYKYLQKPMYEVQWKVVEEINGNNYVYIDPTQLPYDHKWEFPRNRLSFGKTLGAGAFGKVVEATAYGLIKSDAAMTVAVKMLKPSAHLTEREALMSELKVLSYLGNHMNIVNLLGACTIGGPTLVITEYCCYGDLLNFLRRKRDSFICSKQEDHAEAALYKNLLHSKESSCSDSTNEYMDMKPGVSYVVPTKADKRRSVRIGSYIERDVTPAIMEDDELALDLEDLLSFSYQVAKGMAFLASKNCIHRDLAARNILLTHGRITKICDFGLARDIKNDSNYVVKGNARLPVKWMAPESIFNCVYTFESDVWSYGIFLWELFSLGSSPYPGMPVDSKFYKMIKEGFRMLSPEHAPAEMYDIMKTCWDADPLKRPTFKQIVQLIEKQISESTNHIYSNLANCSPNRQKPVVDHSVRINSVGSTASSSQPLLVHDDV

[6] = target: T6, cKit(V654A) (Homo sapiens, UniProt P10721, V654A); experiment: Kinome profiler screen; assay type: biochemical; details: at 20,000 nM inhibitor; kinase activity remaining
T6 construct: purchased Millipore KinaseProfiler
T6 sequence (P10721 26-976 V654A): as the sequence (P10721 26-976) above, with V629A counted along it

[7] = target: T7, PKCμ (Homo sapiens, UniProt Q15139); experiment: Kinome profiler screen; assay type: biochemical; details: at 20,000 nM inhibitor; kinase activity remaining
T7 construct: purchased Millipore KinaseProfiler

[8] = target: T8, Fyn (Homo sapiens, UniProt P06241); experiment: Kinome profiler screen; assay type: biochemical; details: at 20,000 nM inhibitor; kinase activity remaining
T8 construct: purchased Millipore KinaseProfiler

[9] = target: T9, AMPKα2 (Homo sapiens, UniProt P54646); experiment: Kinome profiler screen; assay type: biochemical; details: at 20,000 nM inhibitor; kinase activity remaining
T9 construct: purchased Millipore KinaseProfiler

[10] = target: T10, LKB1 (Homo sapiens, UniProt Q15831); experiment: Kinome profiler screen; assay type: biochemical; details: at 20,000 nM inhibitor; kinase activity remaining
T10 construct: purchased Millipore KinaseProfiler
T10 sequence (Q15831 whole entry): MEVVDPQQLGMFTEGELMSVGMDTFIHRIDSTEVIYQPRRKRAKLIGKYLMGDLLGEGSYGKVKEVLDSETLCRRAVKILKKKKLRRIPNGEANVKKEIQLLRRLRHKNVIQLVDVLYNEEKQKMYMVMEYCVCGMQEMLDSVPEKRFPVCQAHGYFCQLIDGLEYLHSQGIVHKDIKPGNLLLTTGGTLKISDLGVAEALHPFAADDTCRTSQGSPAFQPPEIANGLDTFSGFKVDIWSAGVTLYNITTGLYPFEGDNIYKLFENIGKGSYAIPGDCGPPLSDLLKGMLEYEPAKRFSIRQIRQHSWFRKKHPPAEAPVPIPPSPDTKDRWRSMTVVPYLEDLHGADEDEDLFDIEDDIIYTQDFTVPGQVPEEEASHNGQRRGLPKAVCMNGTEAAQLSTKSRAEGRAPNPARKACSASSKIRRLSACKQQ
T10 sequence (Q7RTN6 whole entry partner): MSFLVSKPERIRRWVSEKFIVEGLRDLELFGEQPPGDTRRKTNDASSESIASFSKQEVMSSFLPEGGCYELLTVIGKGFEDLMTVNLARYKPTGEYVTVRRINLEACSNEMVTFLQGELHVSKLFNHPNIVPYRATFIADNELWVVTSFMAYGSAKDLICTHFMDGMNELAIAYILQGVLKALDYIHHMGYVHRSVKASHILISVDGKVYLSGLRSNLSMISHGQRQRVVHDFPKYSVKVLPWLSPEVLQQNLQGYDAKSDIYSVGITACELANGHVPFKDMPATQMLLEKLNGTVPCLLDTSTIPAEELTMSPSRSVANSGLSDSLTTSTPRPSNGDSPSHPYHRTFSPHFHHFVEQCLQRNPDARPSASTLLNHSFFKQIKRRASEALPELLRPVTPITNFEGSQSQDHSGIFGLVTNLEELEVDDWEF
T10 sequence (Q9Y376 whole entry partner): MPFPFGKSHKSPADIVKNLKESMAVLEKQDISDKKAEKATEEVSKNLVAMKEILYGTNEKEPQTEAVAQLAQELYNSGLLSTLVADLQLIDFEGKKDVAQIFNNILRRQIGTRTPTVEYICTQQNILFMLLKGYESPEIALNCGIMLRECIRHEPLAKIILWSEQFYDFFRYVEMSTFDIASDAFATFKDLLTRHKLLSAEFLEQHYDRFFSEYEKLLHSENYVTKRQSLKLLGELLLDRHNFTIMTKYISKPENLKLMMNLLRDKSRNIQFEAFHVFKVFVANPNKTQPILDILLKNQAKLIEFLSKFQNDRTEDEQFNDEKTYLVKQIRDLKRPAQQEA

[11] = target: T11, PKCε (Homo sapiens, UniProt Q02156); experiment: Kinome profiler screen; assay type: biochemical; details: at 20,000 nM inhibitor; kinase activity remaining
T11 construct: purchased Millipore KinaseProfiler

[12] = target: T12, TSSK1 (Homo sapiens, UniProt Q9BXA7); experiment: Kinome profiler screen; assay type: biochemical; details: at 20,000 nM inhibitor; kinase activity remaining
T12 construct: purchased Millipore KinaseProfiler

[13] = target: T13, Fms (Homo sapiens, UniProt P07333); experiment: Kinome profiler screen; assay type: biochemical; details: at 20,000 nM inhibitor; kinase activity remaining
T13 construct: purchased Millipore KinaseProfiler

[14] = target: T14, CHK2 (Homo sapiens, UniProt O96017); experiment: Kinome profiler screen; assay type: biochemical; details: at 20,000 nM inhibitor; kinase activity remaining
T14 construct: purchased Millipore KinaseProfiler
T14 sequence (O96017 whole entry): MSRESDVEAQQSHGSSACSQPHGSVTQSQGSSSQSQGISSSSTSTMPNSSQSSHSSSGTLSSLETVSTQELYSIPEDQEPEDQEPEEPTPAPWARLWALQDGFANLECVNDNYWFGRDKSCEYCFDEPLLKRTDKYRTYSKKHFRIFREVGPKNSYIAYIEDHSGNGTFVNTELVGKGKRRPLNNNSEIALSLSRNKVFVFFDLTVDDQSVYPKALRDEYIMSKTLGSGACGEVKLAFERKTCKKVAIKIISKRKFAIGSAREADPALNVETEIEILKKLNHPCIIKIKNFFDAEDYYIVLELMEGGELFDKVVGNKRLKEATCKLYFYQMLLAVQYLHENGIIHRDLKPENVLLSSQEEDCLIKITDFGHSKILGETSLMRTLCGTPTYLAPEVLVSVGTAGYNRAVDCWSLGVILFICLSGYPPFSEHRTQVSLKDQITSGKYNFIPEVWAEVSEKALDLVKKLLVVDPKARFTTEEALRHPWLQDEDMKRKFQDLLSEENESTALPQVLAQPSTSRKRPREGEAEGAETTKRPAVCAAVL

[15] = target: T15, MST2 (Homo sapiens, UniProt Q13188); experiment: Kinome profiler screen; assay type: biochemical; details: at 20,000 nM inhibitor; kinase activity remaining
T15 construct: purchased Millipore KinaseProfiler

[16] = target: T16, FGFR2 (Homo sapiens, UniProt P21802); experiment: Kinome profiler screen; assay type: biochemical; details: at 20,000 nM inhibitor; kinase activity remaining
T16 construct: purchased Millipore KinaseProfiler

[17] = target: T17, Fgr (Homo sapiens, UniProt P09769); experiment: Kinome profiler screen; assay type: biochemical; details: at 20,000 nM inhibitor; kinase activity remaining
T17 construct: purchased Millipore KinaseProfiler

[18] = target: T18, Arg(m) (Mus musculus, UniProt Q4JIM5); experiment: Kinome profiler screen; assay type: biochemical; details: at 20,000 nM inhibitor; kinase activity remaining
T18 construct: purchased Millipore KinaseProfiler

[19] = system: contextual and cued learning; experiment: Fear conditioning, Aβ42-infused mice; assay type: in vivo, C57BL/6J mice; details: for cued learning: 24 hrs after contextual learning, control test; for contextual fear memory deficit: Aβ42-infused mice
[20] = target: T19, PRAK (Homo sapiens, UniProt Q8IW41); experiment: Kinome profiler screen; assay type: biochemical; details: at 20,000 nM inhibitor; kinase activity remaining
T19 construct: purchased Millipore KinaseProfiler

[21] = target: T20, IGF-1R (Homo sapiens, UniProt P08069); experiment: Kinome profiler screen; assay type: biochemical; details: at 20,000 nM inhibitor; kinase activity remaining
T20 construct: purchased Millipore KinaseProfiler
T20 sequence (P08069 31-1367): as the sequence (P08069 31-1367) above

[22] = target: T21, IRAK1 (Homo sapiens, UniProt P51617); experiment: Kinome profiler screen; assay type: biochemical; details: at 20,000 nM inhibitor; kinase activity remaining
T21 construct: purchased Millipore KinaseProfiler

[23] = target: T22, MINK (Homo sapiens, UniProt Q8N4C8); experiment: Kinome profiler screen; assay type: biochemical; details: at 20,000 nM inhibitor; kinase activity remaining
T22 construct: purchased Millipore KinaseProfiler

[24] = target: T23, ROCK-II(r) (Rattus norvegicus, UniProt Q62868); experiment: Kinome profiler screen; assay type: biochemical; details: at 20,000 nM inhibitor; kinase activity remaining
T23 construct: purchased Millipore KinaseProfiler

[25] = target: T24, CHK2(R145W) (Homo sapiens, UniProt O96017, R145W); experiment: Kinome profiler screen; assay type: biochemical; details: at 20,000 nM inhibitor; kinase activity remaining
T24 construct: purchased Millipore KinaseProfiler
T24 sequence (O96017 whole entry R145W): as the sequence (O96017 whole entry) above, with R145W counted along it

[26] = target: T25, SGK3 (Homo sapiens, UniProt Q96BR1); experiment: Kinome profiler screen; assay type: biochemical; details: at 20,000 nM inhibitor; kinase activity remaining
T25 construct: purchased Millipore KinaseProfiler

[27] = target: T26, PRK2 (Homo sapiens, UniProt Q16513); experiment: Kinome profiler screen; assay type: biochemical; details: at 20,000 nM inhibitor; kinase activity remaining
T26 construct: purchased Millipore KinaseProfiler

[28] = target: T27, GSK3α (Homo sapiens, UniProt P49840); experiment: Kinome profiler screen; assay type: biochemical; details: at 20,000 nM inhibitor; kinase activity remaining
T27 construct: purchased Millipore KinaseProfiler

[29] = target: T28, Arg (Homo sapiens, UniProt P42684); experiment: Kinome profiler screen; assay type: biochemical; details: at 20,000 nM inhibitor; kinase activity remaining
T28 construct: purchased Millipore KinaseProfiler

[30] = target: T29, CK1γ3 (Homo sapiens, UniProt Q9Y6M4); experiment: Kinome profiler screen; assay type: biochemical; details: at 20,000 nM inhibitor; kinase activity remaining
T29 construct: purchased Millipore KinaseProfiler

[31] = target: T30, PIP4K2α (Homo sapiens, UniProt P48426); experiment: Kinome profiler screen; assay type: biochemical; details: at 20,000 nM inhibitor; kinase activity remaining
T30 construct: purchased Millipore KinaseProfiler

[32] = target: T31, TAO3 (Homo sapiens, UniProt Q9H2K8); experiment: Kinome profiler screen; assay type: biochemical; details: at 20,000 nM inhibitor; kinase activity remaining
T31 construct: purchased Millipore KinaseProfiler

[33] = target: T32, EGFR(T790M) (Homo sapiens, UniProt P00533, T790M); experiment: Kinome profiler screen; assay type: biochemical; details: at 20,000 nM inhibitor; kinase activity remaining
T32 construct: purchased Millipore KinaseProfiler

[34] = target: T33, Lck (Homo sapiens, UniProt P06239); experiment: Kinome profiler screen; assay type: biochemical; details: at 20,000 nM inhibitor; kinase activity remaining
T33 construct: purchased Millipore KinaseProfiler
T33 sequence (P06239 whole entry): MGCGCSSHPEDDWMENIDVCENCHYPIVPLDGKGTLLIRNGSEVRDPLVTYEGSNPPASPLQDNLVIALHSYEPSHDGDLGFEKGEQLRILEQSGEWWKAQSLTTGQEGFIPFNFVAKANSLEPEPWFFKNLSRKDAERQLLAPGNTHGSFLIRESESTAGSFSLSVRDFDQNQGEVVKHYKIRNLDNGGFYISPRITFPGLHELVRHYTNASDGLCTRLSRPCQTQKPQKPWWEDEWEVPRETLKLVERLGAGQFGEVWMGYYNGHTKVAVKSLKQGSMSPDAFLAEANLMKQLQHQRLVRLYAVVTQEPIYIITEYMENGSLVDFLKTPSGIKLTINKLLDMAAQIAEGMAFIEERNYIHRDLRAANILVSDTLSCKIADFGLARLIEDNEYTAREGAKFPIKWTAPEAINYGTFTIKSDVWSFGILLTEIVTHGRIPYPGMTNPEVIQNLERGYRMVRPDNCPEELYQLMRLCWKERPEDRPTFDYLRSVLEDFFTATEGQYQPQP

[35] = target: T34, EphB3 (Homo sapiens, UniProt P54753); experiment: Kinome profiler screen; assay type: biochemical; details: at 20,000 nM inhibitor; kinase activity remaining
T34 construct: purchased Millipore KinaseProfiler

[36] = target: T35, CDK7/cyclinH/MAT1 (Homo sapiens, UniProt P50613); experiment: Kinome profiler screen; assay type: biochemical; details: at 20,000 nM inhibitor; kinase activity remaining
T35 construct: purchased Millipore KinaseProfiler

[37] = target: T36, Abl (Homo sapiens, UniProt P00519); experiment: Kinome profiler screen; assay type: biochemical; details: at 20,000 nM inhibitor; kinase activity remaining
T36 construct: purchased Millipore KinaseProfiler

[38] = target: T37, ASK1 (Homo sapiens, UniProt Q99683); experiment: Kinome profiler screen; assay type: biochemical; details: at 20,000 nM inhibitor; kinase activity remaining
T37 construct: purchased Millipore KinaseProfiler

[39] = target: T38, Met(Y1248D) (Homo sapiens, UniProt P08581, Y1230D); experiment: Kinome profiler screen; assay type: biochemical; details: at 20,000 nM inhibitor; kinase activity remaining
T38 construct: purchased Millipore KinaseProfiler

[40] = target: T39, cKit(V560G) (Homo sapiens, UniProt P10721, V560G); experiment: Kinome profiler screen; assay type: biochemical; details: at 20,000 nM inhibitor; kinase activity remaining
T39 construct: purchased Millipore KinaseProfiler

[41] = target: T40, MAPKAP-K3 (Homo sapiens, UniProt Q16644); experiment: Kinome profiler screen; assay type: biochemical; details: at 20,000 nM inhibitor; kinase activity remaining
T40 construct: purchased Millipore KinaseProfiler

[42] = target: T41, Abl (Q252H) (Homo sapiens, UniProt P00519, Q252H); experiment: Kinome profiler screen; assay type: biochemical; details: at 20,000 nM inhibitor; kinase activity remaining
T41 construct: purchased Millipore KinaseProfiler

[43] = target: T42, Aurora-B (Homo sapiens, UniProt Q96GD4); experiment: Kinome profiler screen; assay type: biochemical; details: at 20,000 nM inhibitor; kinase activity remaining
T42 construct: purchased Millipore KinaseProfiler

T1 sequence (P19784 whole entry): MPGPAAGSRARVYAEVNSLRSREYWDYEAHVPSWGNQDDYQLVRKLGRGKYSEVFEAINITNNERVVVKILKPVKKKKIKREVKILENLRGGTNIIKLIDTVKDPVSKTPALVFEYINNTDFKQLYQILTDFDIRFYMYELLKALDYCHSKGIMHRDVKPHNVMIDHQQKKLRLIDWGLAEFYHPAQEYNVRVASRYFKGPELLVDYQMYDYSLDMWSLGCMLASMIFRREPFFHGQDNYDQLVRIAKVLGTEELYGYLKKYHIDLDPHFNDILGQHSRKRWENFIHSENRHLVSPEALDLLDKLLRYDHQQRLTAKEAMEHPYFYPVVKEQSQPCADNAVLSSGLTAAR

SMILES: CN(C)c1cc(-c2ccncc2)c(-c2ccc3ccccc3c2)nn1 [MW108, N, N-dimethyl-6-(naphthalen-2-yl)-5-(pyridin-4-yl)pyridazin-3-amine]
- activity at 20 µM [1]: 114%
- activity at 20 µM [2]: 98%
- activity at 20 µM [3]: 98%
- activity at 20 µM [4]: 104%
- activity at 20 µM [5]: 104%
- activity at 20 µM [6]: 106%
- activity at 20 µM [7]: 70%
- activity at 20 µM [8]: 95%
- activity at 20 µM [9]: 102%
- activity at 20 µM [10]: 102%
- activity at 20 µM [11]: 90%
- activity at 20 µM [12]: 101%
- activity at 20 µM [13]: 98%
- activity at 20 µM [14]: 97%
- activity at 20 µM [15]: 98%
- activity at 20 µM [16]: 101%
- activity at 20 µM [17]: 92%
- activity at 20 µM [18]: 86%
- cued learning [19]: No difference was detected between groups
- contextual fear memory deficit [19]: ameliorated the contextual fear memory deficit
- activity at 20 µM [20]: 94%
- activity at 20 µM [21]: 137%
- activity at 20 µM [22]: 97%
- activity at 20 µM [23]: 48%
- activity at 20 µM [24]: 97%
- activity at 20 µM [25]: 97%
- activity at 20 µM [26]: 104%
- activity at 20 µM [27]: 103%
- activity at 20 µM [28]: 90%
- activity at 20 µM [29]: 95%
- activity at 20 µM [30]: 100%
- activity at 20 µM [31]: 96%
- activity at 20 µM [32]: 73%
- activity at 20 µM [33]: 68%
- activity at 20 µM [34]: 62%
- activity at 20 µM [35]: 96%
- activity at 20 µM [36]: 98%
- activity at 20 µM [37]: 99%
- activity at 20 µM [38]: 103%
- activity at 20 µM [39]: 93%
- activity at 20 µM [40]: 95%
- activity at 20 µM [41]: 102%
- activity at 20 µM [42]: 105%
- activity at 20 µM [43]: 134%

SMILES: CN(C)c1cc(-c2ccncc2)c(-c2cccc3ccccc23)nn1 [MW181, N,N-dimethyl-6-(naphthalen-1-yl)-5-(pyridin-4-yl)pyridazin-3-amine]
- activity at 20 µM ([1]; at 20,000 nM inhibitor, kinase activity remaining, read-out: % Activity): 99%
- activity at 20 µM [2]: 116%
- activity at 20 µM [3]: 103%
- activity at 20 µM [4]: 87%
- activity at 20 µM [5]: 106%
- activity at 20 µM [6]: 83%
- activity at 20 µM [7]: 70%
- activity at 20 µM [8]: 109%
- activity at 20 µM [9]: 95%
- activity at 20 µM [10]: 100%
- activity at 20 µM [11]: 98%
- activity at 20 µM [12]: 88%
- activity at 20 µM [13]: 85%
- activity at 20 µM [14]: 96%
- activity at 20 µM [15]: 105%
- activity at 20 µM [16]: 98%
- activity at 20 µM [17]: 90%
- activity at 20 µM [18]: 96%
- cued learning [19]: No difference was detected between groups
- contextual fear memory deficit [19]: ameliorated the contextual fear memory deficit
- activity at 20 µM [20]: 105%
- activity at 20 µM [21]: 121%
- activity at 20 µM [22]: 102%
- activity at 20 µM [23]: 54%
- activity at 20 µM [24]: 92%
- activity at 20 µM [25]: 91%
- activity at 20 µM [26]: 100%
- activity at 20 µM [27]: 96%
- activity at 20 µM [28]: 95%
- activity at 20 µM [29]: 84%
- activity at 20 µM [30]: 105%
- activity at 20 µM [31]: 97%
- activity at 20 µM [32]: 88%
- activity at 20 µM [33]: 105%
- activity at 20 µM [34]: 89%
- activity at 20 µM [35]: 102%
- activity at 20 µM [36]: 99%
- activity at 20 µM [37]: 125%
- activity at 20 µM [38]: 109%
- activity at 20 µM [39]: 94%
- activity at 20 µM [40]: 71%
- activity at 20 µM [41]: 99%
- activity at 20 µM [42]: 100%
- activity at 20 µM [43]: 114%
